Laboratory results: PubChem BioAssay (NCI)
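GI50 = concentration required for 50% inhibition of growth. TGI denotes the concentration required for complete inhibition of growth.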

Assays:
Test in all cases: NCI-60 cell line screen, 384-well format
[1] = test system: NCI/ADR-RES ovarian
[2] = test system: HL-60(TB) leukemia
[3] = test system: U251 glioblastoma
[4] = test system: OVCAR-4 ovarian
[5] = test system: HOP-92 NSCLC
[6] = test system: NCI-H23 lung
[7] = test system: A498 renal
[8] = test system: SK-MEL-5 melanoma
[9] = test system: SN12C renal
[10] = test system: COLO 205 colon
[11] = test system: MCF7 breast
[12] = test system: SNB-75 CNS
[13] = test system: HOP-62 NSCLC
[14] = test system: NCI-H522 lung
[15] = test system: UACC-62 melanoma
[16] = test system: SW-620 colon
[17] = test system: UACC-257 melanoma
[18] = test system: MALME-3M melanoma
[19] = test system: MDA-MB-468 breast
[20] = test system: SK-OV-3 ovarian
[21] = test system: RPMI-8226 leukemia
[22] = test system: HCC-2998 colon
[23] = test system: EKVX NSCLC
[24] = test system: M14 melanoma
[25] = test system: CCRF-CEM leukemia
[26] = test system: MOLT-4 leukemia
[27] = test system: T-47D breast
[28] = test system: KM12 colon
[29] = test system: SF-539 CNS
[30] = test system: BT-549 breast
[31] = test system: OVCAR-3 ovarian
[32] = test system: DU-145 prostate
[33] = test system: SF-268 CNS
[34] = test system: HS 578T breast
[35] = test system: MDA-MB-435 melanoma
[36] = test system: LOX IMVI melanoma
[37] = test system: 786-0 renal
[38] = test system: TK-10 renal
[39] = test system: SNB-19 CNS
[40] = test system: ACHN renal
[41] = test system: HCT-15 colon
[42] = test system: SK-MEL-28 melanoma
[43] = test system: SR leukemia
[44] = test system: PC-3 prostate
[45] = test system: NCI-H460 NSCLC
[46] = test system: NCI-H226 lung
[47] = test system: CAKI-1 renal
[48] = test system: SF-295 CNS
[49] = test system: OVCAR-5 ovarian
[50] = test system: NCI-H322M lung
[51] = test system: MDA-MB-231 breast
[52] = test system: HT29 colon
[53] = test system: UO-31 renal
[54] = test system: OVCAR-8 ovarian
[55] = test system: A549 NSCLC
[56] = test system: K-562 leukemia
[57] = test system: IGROV1 ovarian
[58] = test system: RXF 393 renal

SMILES: S=C(NCc1ccc2c(c1)OCO2)N1CCN(c2ncnc3c2oc2ccccc23)CC1
- GI50 [1]: 1.36 µM
- TGI [1]: 6.54 µM
- GI50 [2]: 3.18 µM
- TGI [2]: 30.8 µM
- GI50 [3]: 8.72 µM
- TGI [3]: > 100 µM
- GI50 [4]: 5.77 µM
- TGI [4]: > 100 µM
- GI50 [5]: 62.7 µM
- TGI [5]: > 100 µM
- GI50 [6]: 1.87 µM
- TGI [6]: > 100 µM
- GI50 [7]: 2.95 µM
- TGI [7]: > 100 µM
- GI50 [8]: 1.06 µM
- TGI [8]: 2.69 µM
- GI50 [9]: > 100 µM
- TGI [9]: > 100 µM
- GI50 [10]: > 100 µM
- TGI [10]: > 100 µM
- GI50 [11]: 3.01 µM
- TGI [11]: > 100 µM
- GI50 [12]: > 100 µM
- TGI [12]: > 100 µM
- GI50 [13]: 2.78 µM
- TGI [13]: > 100 µM
- GI50 [14]: 35.4 µM
- TGI [14]: > 100 µM
- GI50 [15]: > 100 µM
- TGI [15]: > 100 µM
- GI50 [16]: > 100 µM
- TGI [16]: > 100 µM
- GI50 [17]: 6.23 µM
- TGI [17]: > 100 µM
- GI50 [18]: > 100 µM
- TGI [18]: > 100 µM
- GI50 [19]: 0.673 µM
- TGI [19]: 3.32 µM
- GI50 [20]: 6.63 µM
- TGI [20]: > 100 µM
- GI50 [21]: 1.79 µM
- TGI [21]: 89.1 µM
- GI50 [22]: 21.7 µM
- TGI [22]: > 100 µM
- GI50 [23]: 6.12 µM
- TGI [23]: > 100 µM
- GI50 [24]: > 100 µM
- TGI [24]: > 100 µM
- GI50 [25]: 0.917 µM
- TGI [25]: 3.63 µM
- GI50 [26]: 1.48 µM
- TGI [26]: 4.8 µM
- GI50 [27]: 0.593 µM
- TGI [27]: 8.23 µM
- GI50 [28]: > 100 µM
- TGI [28]: > 100 µM
- GI50 [29]: > 100 µM
- TGI [29]: > 100 µM
- GI50 [30]: 7.53 µM
- TGI [30]: > 100 µM
- GI50 [31]: > 100 µM
- TGI [31]: > 100 µM
- GI50 [32]: > 100 µM
- TGI [32]: > 100 µM
- GI50 [33]: > 100 µM
- TGI [33]: > 100 µM
- GI50 [34]: 23.2 µM
- TGI [34]: > 100 µM
- GI50 [35]: 72.4 µM
- TGI [35]: > 100 µM
- GI50 [36]: 3.02 µM
- TGI [36]: > 100 µM
- GI50 [37]: 80.6 µM
- TGI [37]: > 100 µM
- GI50 [38]: 71.6 µM
- TGI [38]: > 100 µM
- GI50 [39]: > 100 µM
- TGI [39]: > 100 µM
- GI50 [40]: > 100 µM
- TGI [40]: > 100 µM
- GI50 [41]: 33.2 µM
- TGI [41]: > 100 µM
- GI50 [42]: > 100 µM
- TGI [42]: > 100 µM
- GI50 [43]: 0.49 µM
- TGI [43]: 3.36 µM
- GI50 [44]: 67.6 µM
- TGI [44]: > 100 µM
- GI50 [45]: 2.94 µM
- TGI [45]: 9.25 µM
- GI50 [46]: 23.6 µM
- TGI [46]: > 100 µM
- GI50 [47]: > 100 µM
- TGI [47]: > 100 µM
- GI50 [48]: > 100 µM
- TGI [48]: > 100 µM
- GI50 [49]: > 100 µM
- TGI [49]: > 100 µM
- GI50 [50]: 2.55 µM
- TGI [50]: > 100 µM
- GI50 [51]: 6.31 µM
- TGI [51]: > 100 µM
- GI50 [52]: > 100 µM
- TGI [52]: > 100 µM
- GI50 [53]: 15.9 µM
- TGI [53]: 89 µM
- GI50 [54]: 3.04 µM
- TGI [54]: > 100 µM
- GI50 [55]: 9.14 µM
- TGI [55]: > 100 µM
- GI50 [56]: 1.62 µM
- TGI [56]: > 100 µM

SMILES: C[C@@H](NC(=O)c1ccc(F)cc1)c1ccc2c(c1)CCN2C(=O)C1CCOCC1
- GI50 [1]: > 100 µM
- TGI [1]: > 100 µM
- GI50 [2]: > 100 µM
- TGI [2]: > 100 µM
- GI50 [4]: 80.7 µM
- TGI [4]: > 100 µM
- GI50 [5]: > 100 µM
- TGI [5]: > 100 µM
- GI50 [6]: > 100 µM
- TGI [6]: > 100 µM
- GI50 [7]: > 100 µM
- TGI [7]: > 100 µM
- GI50 [8]: > 100 µM
- TGI [8]: > 100 µM
- GI50 [9]: > 100 µM
- TGI [9]: > 100 µM
- GI50 [10]: > 100 µM
- TGI [10]: > 100 µM
- GI50 [11]: > 100 µM
- TGI [11]: > 100 µM
- GI50 [12]: > 100 µM
- TGI [12]: > 100 µM
- GI50 [13]: > 100 µM
- TGI [13]: > 100 µM
- GI50 [14]: > 100 µM
- TGI [14]: > 100 µM
- GI50 [57]: > 100 µM
- TGI [57]: > 100 µM
- GI50 [15]: > 100 µM
- TGI [15]: > 100 µM
- GI50 [16]: > 100 µM
- TGI [16]: > 100 µM
- GI50 [17]: > 100 µM
- TGI [17]: > 100 µM
- GI50 [18]: > 100 µM
- TGI [18]: > 100 µM
- GI50 [19]: 34.4 µM
- TGI [19]: > 100 µM
- GI50 [20]: > 100 µM
- TGI [20]: > 100 µM
- GI50 [21]: 91.4 µM
- TGI [21]: > 100 µM
- GI50 [22]: > 100 µM
- TGI [22]: > 100 µM
- GI50 [23]: > 100 µM
- TGI [23]: > 100 µM
- GI50 [24]: > 100 µM
- TGI [24]: > 100 µM
- GI50 [25]: > 100 µM
- TGI [25]: > 100 µM
- GI50 [26]: > 100 µM
- TGI [26]: > 100 µM
- GI50 [27]: 58.6 µM
- TGI [27]: > 100 µM
- GI50 [28]: > 100 µM
- TGI [28]: > 100 µM
- GI50 [29]: > 100 µM
- TGI [29]: > 100 µM
- GI50 [58]: > 100 µM
- TGI [58]: > 100 µM
- GI50 [30]: > 100 µM
- TGI [30]: > 100 µM
- GI50 [31]: > 100 µM
- TGI [31]: > 100 µM
- GI50 [32]: > 100 µM
- TGI [32]: > 100 µM
- GI50 [33]: > 100 µM
- TGI [33]: > 100 µM
- GI50 [34]: > 100 µM
- TGI [34]: > 100 µM
- GI50 [35]: > 100 µM
- TGI [35]: > 100 µM
- GI50 [36]: > 100 µM
- TGI [36]: > 100 µM
- GI50 [37]: > 100 µM
- TGI [37]: > 100 µM
- GI50 [38]: > 100 µM
- TGI [38]: > 100 µM
- GI50 [39]: > 100 µM
- TGI [39]: > 100 µM
- GI50 [40]: > 100 µM
- TGI [40]: > 100 µM
- GI50 [41]: > 100 µM
- TGI [41]: > 100 µM
- GI50 [42]: > 100 µM
- TGI [42]: > 100 µM
- GI50 [43]: > 100 µM
- TGI [43]: > 100 µM
- GI50 [44]: > 100 µM
- TGI [44]: > 100 µM
- GI50 [45]: > 100 µM
- TGI [45]: > 100 µM
- GI50 [46]: > 100 µM
- TGI [46]: > 100 µM
- GI50 [47]: > 100 µM
- TGI [47]: > 100 µM
- GI50 [48]: > 100 µM
- TGI [48]: > 100 µM
- GI50 [49]: > 100 µM
- TGI [49]: > 100 µM
- GI50 [50]: > 100 µM
- TGI [50]: > 100 µM
- GI50 [51]: > 100 µM
- TGI [51]: > 100 µM
- GI50 [52]: > 100 µM
- TGI [52]: > 100 µM
- GI50 [53]: > 100 µM
- TGI [53]: > 100 µM
- GI50 [54]: > 100 µM
- TGI [54]: > 100 µM
- GI50 [55]: > 100 µM
- TGI [55]: > 100 µM
- GI50 [56]: > 100 µM
- TGI [56]: > 100 µM
